Molecules are shown by their SMILES.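 Method: 48-hour compound exposure of cells in 96-well plates, five concentrations, linear interpolation of endpoints. Abbreviation: GI50, concentration required for 50% inhibition of growth. TGI marks complete inhibition of growth.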

Test systems include HCT-116 colon; SNB-19 CNS; RXF 393 renal; U251 CNS; MALME-3M melanoma; KM12 colon; K-562 leukemia; UO-31 renal; MDA-MB-435; PC-3 prostate.
What all share (test): DTP human tumour cell line panel, 48 h

In the case of `COC1CCC(OS(C)(=O)=O)CO1` (centres undefined), the TGI in the test with HCT-116 colon, in the test on SNB-19 CNS, in the test on RXF 393 renal, with U251 CNS, in the test on MALME-3M melanoma and in the test with KM12 colon was over 100 µM throughout. The TGI in the test with K-562 leukemia and with UO-31 renal was over 100 µM throughout.

As for `OC1C=C2C3CN(Cc4cc5c(cc43)OCO5)[C@H]2C[C@@H]1O` (some centres undefined), the concentration for total growth inhibition (TGI) in the test with HCT-116 colon is 25.1 µM; in the test on MDA-MB-435, 24.7 µM; with SNB-19 CNS it was 76.1 µM; in the test on RXF 393 renal it was 21.4 µM; in the test with U251 CNS, 50.4 µM; in the test on MALME-3M melanoma, over 100 µM. Moreover, the TGI with KM12 colon was 43.9 µM; in the test on PC-3 prostate it was 22.6 µM; with K-562 leukemia, over 100 µM; in the test on UO-31 renal, 71.4 µM.

Regarding `O=c1c2c([nH]c3nccn13)CCCC2`, the TGI with HCT-116 colon, with MDA-MB-435, in the test on SNB-19 CNS, in the test on RXF 393 renal, with U251 CNS and in the test on MALME-3M melanoma was over 10 µM each time. Moreover, the total growth inhibition concentration (TGI) in the test with KM12 colon, in the test on PC-3 prostate and with UO-31 renal was over 10 µM each time.

For the molecule `O=C1c2ccccc2-c2ccc(O)cc21`, the TGI in the test on HCT-116 colon was over 100 µM; with MDA-MB-435 it was 59.6 µM; in the test with SNB-19 CNS, 48.7 µM; with RXF 393 renal, 32.9 µM; in the test on U251 CNS it was 70.3 µM; with MALME-3M melanoma, 49.2 µM. In addition, the TGI in the test with KM12 colon amounted to 38.4 µM; in the test on PC-3 prostate it was 42.9 µM; in the test on K-562 leukemia, 94.7 µM; in the test on UO-31 renal it was 32.1 µM.

Take `S=C(NCCCCCCNC(=S)Nc1c2ccccc2nc2ccccc12)Nc1c2ccccc2nc2ccccc12`: the TGI in the test on HCT-116 colon is over 100 µM; with SNB-19 CNS it was over 100 µM; with RXF 393 renal it was over 100 µM; with U251 CNS, over 100 µM; in the test with MALME-3M melanoma it was over 100 µM; with KM12 colon, over 34.7 µM. For the same molecule, the TGI in the test on K-562 leukemia and in the test on UO-31 renal was over 100 µM in each case.

`COc1ccc(OC)c2sc(N3C(=O)/C(=C/c4ccccc4S)N=C3c3ccccc3)nc12`: the TGI was 78.2 µM with HCT-116 colon; 52 µM in the test with MDA-MB-435; over 100 µM in the test with SNB-19 CNS; 58.5 µM with RXF 393 renal; 73.8 µM with U251 CNS; over 100 µM with KM12 colon. Moreover, the figures for the TGI with PC-3 prostate, in the test with K-562 leukemia and in the test with UO-31 renal were 56.5 µM, over 100 µM and 77.2 µM, respectively.

As for `CCC(C)C(NC(=O)C(CCCCN)NC(=O)C(NC(=O)C(CCC(N)=O)NC(=O)C(CCCNC(=N)N)NC(C)=O)C(C)CC)C(=O)NC(Cc1c[nH]c2ccccc12)C(=O)NC(Cc1ccccc1)C(=O)NC(CCC(N)=O)C(=O)NC(CC(N)=O)C(=O)NC(CCCNC(=N)N)C(=O)NC(CCCNC(=N)N)C(=O)NC(CCSC)C(=O)NC(CCCCN)C(=O)NC(Cc1c[nH]c2ccccc12)C(=O)NC(CCCCN)C(=O)NC(CCCCN)C(N)=O` (centres undefined), the TGI with HCT-116 colon, in the test with MDA-MB-435, in the test with SNB-19 CNS, in the test on RXF 393 renal, in the test with U251 CNS and with MALME-3M melanoma was over 50 µM each time. In addition, the TGI in the test on KM12 colon, in the test on PC-3 prostate and in the test with K-562 leukemia was over 50 µM throughout.

As for `CC(=O)OCCC[C@@H]1C(=C(C)C)CCC2[C@@]1(C)CC[C@@]1(C)C[C@](C)(CCC=C(C)C)CC[C@]21C` (some centres undefined), the TGI in the test on HCT-116 colon, in the test on MDA-MB-435, in the test on SNB-19 CNS, in the test on U251 CNS, in the test with MALME-3M melanoma and in the test with KM12 colon was over 100 µM throughout. The TGI is over 100 µM in the test with PC-3 prostate and 46.1 µM with UO-31 renal.

With `CN(C)CCNc1c([N+](=O)[O-])cc2c3c(cccc13)C(=O)N(CCN(C)C)C2=O`, the TGI in the test with HCT-116 colon was 15.3 µM; in the test on SNB-19 CNS, 8.33 µM; in the test with RXF 393 renal it was 3.69 µM; with U251 CNS it was 6.44 µM; with MALME-3M melanoma it was 2.28 µM; in the test on KM12 colon, over 26.4 µM. Besides, the TGI was 4.51 µM in the test on K-562 leukemia and 4.2 µM with UO-31 renal.

Take `Cc1c2c(cc3c1[nH]c1ccccc13)C(c1ccc(F)cc1)=NCC2`: the TGI in the test on HCT-116 colon was 5.41 µM; in the test with SNB-19 CNS, 6.94 µM; in the test with RXF 393 renal, 4.32 µM; in the test with U251 CNS, 5.11 µM; with MALME-3M melanoma, 4.91 µM; with KM12 colon, 7.37 µM. Also, the TGI came out at 5.93 µM in the test with K-562 leukemia and 4.08 µM in the test on UO-31 renal.

Turning to `O=C(NN1C(=O)/C(=C/c2ccc(Cl)cc2)N=C1c1ccccc1)c1c(Cl)c(Cl)c(Cl)c(Cl)c1-c1nc2ccccc2[nH]1`, the TGI in the test with HCT-116 colon was 45.2 µM; in the test with MDA-MB-435, 11.6 µM; in the test on SNB-19 CNS, over 100 µM; in the test on MALME-3M melanoma, 54.6 µM; in the test with KM12 colon, 28.5 µM; in the test on PC-3 prostate it was over 100 µM. For the same molecule, the TGI with K-562 leukemia is 50 µM; in the test on UO-31 renal, over 100 µM.

As to `O=C1OC(c2ccccc2)=N/C1=C/c1cccs1`, the TGI in the test with MDA-MB-435, in the test on SNB-19 CNS, in the test on RXF 393 renal, in the test on U251 CNS, in the test on KM12 colon and in the test with PC-3 prostate was over 100 µM each time. Moreover, the TGI with K-562 leukemia is over 100 µM.

Regarding `CN1CCN(CCCOc2ccc3ncnc(Nc4ccc(Oc5cccc(C(F)(F)F)c5)c(Cl)c4)c3c2)CC1`, the GI50 in the test with MDA-MB-435 was 1.53 µM; in the test with SNB-19 CNS, 1.83 µM; in the test on RXF 393 renal, 1.49 µM; in the test with U251 CNS it was 1.54 µM; in the test with MALME-3M melanoma it was 1.5 µM; in the test on KM12 colon it was 1.86 µM. Besides, the GI50 in the test on PC-3 prostate is 1.71 µM; with K-562 leukemia, 1.17 µM; in the test with UO-31 renal, 1.21 µM. The TGI in the test on MDA-MB-435 was 3.09 µM; in the test on SNB-19 CNS, 3.8 µM; in the test with RXF 393 renal it was 2.93 µM; in the test with U251 CNS, 3.2 µM; with MALME-3M melanoma, 2.89 µM; in the test with KM12 colon, 4.01 µM. The TGI in the test on PC-3 prostate is 3.91 µM; in the test on K-562 leukemia, 4 µM; with UO-31 renal it was 2.44 µM.

As for `Cc1c(Cl)c(=O)oc2cc(OCC(=O)c3ccccc3)ccc12`, the TGI with MDA-MB-435, in the test with SNB-19 CNS, with RXF 393 renal, in the test on U251 CNS, with MALME-3M melanoma and in the test with KM12 colon was over 100 µM in each case. Besides, the TGI in the test on PC-3 prostate, in the test on K-562 leukemia and with UO-31 renal was over 100 µM in each case.

Source of the values: PubChem BioAssay (NCI).
